pIC50: −log10 of the molar value.
How the values were obtained:
[1] = Selectivity index, ratio of CC50 for human HepG2(2.2.15) cells to IC50 for HBV early antigen secretion; type: functional
Hepatitis B virus [2] = test: Antiviral activity against HBV assessed as inhibition of viral surface antigen secretion; type: functional, organism-based
[3] = Selectivity index, ratio of CC50 for human HepG2(2.2.15) cells to IC50 for HBV surface antigen secretion; type: functional
Hepatitis B virus [4] = test: Antiviral activity against HBV assessed as inhibition of viral early antigen secretion; type: functional, organism-based
[5] = Cytotoxicity against human HepG2(2.2.15) cells; type: cell-based

pIC50 (Hepatitis B virus [2])	pIC50 (Hepatitis B virus [4])	SMILES	Ratio CC50/IC50 [1]	Ratio CC50/IC50 [3]	CC50 [5] [µM]
3.89	< 3.60	CCOCC(=O)O[C@@H](C[C@@H](C)[C@]12CC[C@@]3(C)[C@@]1(C[C@H](OC(=O)COCC)[C@H]1[C@@]4(C)CCC(=O)C(C)(C)[C@@H]4CC[C@@]13C)O2)[C@@H](OC(=O)COCC)C(C)(C)O	<1	1.9	250
3.05	< 2.96	COCC(=O)O[C@@H](C[C@@H](C)[C@]12CC[C@@]3(C)[C@@]1(C[C@H](OC(=O)COC)[C@H]1[C@@]4(C)CCC(=O)C(C)(C)[C@@H]4CC[C@@]13C)O2)[C@@H](OC(=O)COC)C(C)(C)O	<1	1.2	1100
3.54	3.06	CC(=O)NCC(=O)O[C@@H](C[C@@H](C)C1=C2C[C@H](OC(=O)CNC(C)=O)[C@H]3[C@@]4(C)CCC(=O)C(C)(C)[C@@H]4CC[C@]3(C)[C@@]2(C)CC1)[C@@H](OC(=O)CNC(C)=O)C(C)(C)O	<1	<1	270
3.92	< 3.60	CC(=O)OCC(=O)O[C@@H](C[C@@H](C)[C@]12CC[C@@]3(C)[C@@]1(C[C@H](OC(=O)COC(C)=O)[C@H]1[C@@]4(C)CCC(=O)C(C)(C)[C@@H]4CC[C@@]13C)O2)[C@@H](OC(=O)COC(C)=O)C(C)(C)O	<1	2.1	250
3.60	3.49	CCOCC(=O)O[C@@H](C[C@@H](C)[C@]12CC[C@@]3(C)[C@@]1(C[C@H](OC(=O)COCC)[C@H]1[C@@]4(C)CCC(=O)C(C)(C)[C@@H]4CC[C@@]13C)O2)[C@@H](OC(=O)COCC)C(C)(C)OC(=O)COCC	>4.4	>5.6	> 1400
> 4.42	< 4.29	CC(=O)OCC(=O)O[C@@H](C[C@@H](C)C1=C2C[C@H](OC(=O)COC(C)=O)[C@H]3[C@@]4(C)CCC(=O)C(C)(C)[C@@H]4CC[C@]3(C)[C@@]2(C)CC1)[C@@H](OC(=O)COC(C)=O)C(C)(C)O	<1	>1.3	51

The next lines start with the compound.

SMILES	pIC50 (Hepatitis B virus [2])	pIC50 (Hepatitis B virus [4])	Ratio CC50/IC50 [1]	Ratio CC50/IC50 [3]	CC50 [5] [µM]
C=C(C)[C@H](OC(=O)COC)[C@H](C[C@@H](C)C1=C2C[C@H](OC(=O)COC)[C@H]3[C@@]4(C)CCC(=O)C(C)(C)[C@@H]4CC[C@]3(C)[C@@]2(C)CC1)OC(=O)COC	4.17	3.92	>24	>42	> 2800
C[C@H](C[C@H](OC(=O)CNC(=O)OC(C)(C)C)[C@@H](OC(=O)CNC(=O)OC(C)(C)C)C(C)(C)O)C1=C2C[C@H](OC(=O)CNC(=O)OC(C)(C)C)[C@H]3[C@@]4(C)CCC(=O)C(C)(C)[C@@H]4CC[C@]3(C)[C@@]2(C)CC1	3.49	4.03	>16	>4.7	> 1500
C=C(C)[C@H](OC(=O)COCC)[C@H](C[C@@H](C)C1=C2C[C@H](OC(=O)COCC)[C@H]3[C@@]4(C)CCC(=O)C(C)(C)[C@@H]4CC[C@]3(C)[C@@]2(C)CC1)OC(=O)COCC	4.70	4.52	>40	>60	> 1200
C[C@H](C[C@H](OC(=O)CN1C(=O)c2ccccc2C1=O)[C@@H](OC(=O)CN1C(=O)c2ccccc2C1=O)C(C)(C)O)C1=C2C[C@H](OC(=O)CN3C(=O)c4ccccc4C3=O)[C@H]3[C@@]4(C)CCC(=O)C(C)(C)[C@@H]4CC[C@]3(C)[C@@]2(C)CC1	2.92	3.85	>11	>1.2	> 1500
Nc1ccn([C@@H]2CS[C@H](CO)O2)c(=O)n1 [LAMIVUDINE]	1.74	1.42	0.82	1.7	31000
